Data: US20100285115A1, “Novel Antiretroviral Combination” (CIPLA LIMITED, priority 2007, published 2010)

What was measured:
[1] = Stability study of Atazanavir and Ritonavir tablet; type: physicochemical
Excerpt: Stability study data of Atazanavir and Ritonavir tablet: [table]

[2] = manufactured in solid dosage form such as tablet; U.S. Pat. No. 6,458,818; cited from earlier work

Assay (%) (Limit 90-110% of Labelled amount) ([1]; 25° C./60% RH, 2 M)	Assay (%) (Limit 90-110% of Labelled amount) ([1]; 40° C./75% RH, 2 M)	Assay (%) (Limit 90-110% of Labelled amount) ([1]; Initial)	SMILES	oral bioavailability [2]
99.0%	98%	100.3%	COC(=O)N[C@H](C(=O)N[C@@H](Cc1ccccc1)[C@@H](O)CN(Cc1ccc(-c2ccccn2)cc1)NC(=O)[C@@H](NC(=O)OC)C(C)(C)C)C(C)(C)C [Atazanavir]	–
99.3%	96%	99.5%	CC(C)c1nc(CN(C)C(=O)N[C@H](C(=O)N[C@@H](Cc2ccccc2)C[C@H](O)[C@H](Cc2ccccc2)NC(=O)OCc2cncs2)C(C)C)cs1 [Ritonavir]	poor
